Results: patent US4103008A, “7[2(2,3 Dioxopiperazin-1-yl-carbonylamino)substituted 2 phenylacetamido]-3-2'-thiadiazolyl cephalosporanic acid derivatives” (priority 1976, dated 1978)
Values after ≈ are worked out from the molar mass of the structure shown. Read-outs that look alike come from different tables or passages of the source.

Assays:
[1] = tested on: Staphylococcus aureus FDA 209NIH, P-J C-1; test: In vitro antibacterial activity (MIC); assay type: cell-based
[2] = tested on: Streptococcus faecalis ATCC 8043; test: In vitro antibacterial activity (MIC); assay type: cell-based; conditions: Enterococcus faecalis, ATCC8043
[3] = tested on: Bacillus substilis ATCC 6633; test: In vitro antibacterial activity (MIC); assay type: cell-based; conditions: ATCC6633
Escherichia coli C 73-1 = test: In vitro antibacterial activity (MIC); assay type: cell-based; conditions: C731
Escherichia coli C 73-4 = test: In vitro antibacterial activity (MIC); assay type: cell-based; conditions: C734
[4] = tested on: Salmonella enteritidis No. 11; test: In vitro antibacterial activity (MIC); assay type: cell-based; conditions: Salmonella enterica
[5] = tested on: Pseudomonas strain C73-83; test: In vitro antibacterial activity (MIC); assay type: cell-based; conditions: C7383
Source text: (§1) Given below are the test results of in vitro antibacterial activity studies, serum concentrations and accumulative urinary excretions in rabbits and the protecting effects in mice, of some representative compounds of the invention.
(§2) The compounds used in the tests are shown in the following Table 1, but all of these compounds are in the form of the sodium salt.

[6] = tested on: Salmonella strain C 73-30; test: In vitro antibacterial activity (MIC); assay type: cell-based; conditions: C7330
Source text: as §1, §2

Salmonella strain C73-1 = test: In vitro antibacterial activity (MIC); assay type: cell-based; conditions: C731
Source text: as §1, §2

[7] = tested on: Shigella dysenteriae shigae; test: microbe, parasite or virus in culture; assay type: cell-based
Klebsilla pneumoniae = test: In vitro antibacterial activity (MIC); assay type: cell-based
Proteus morganii kono = test: In vitro antibacterial activity (MIC); assay type: cell-based; conditions: Morganella morganii
Proteus morganii C73-23 = test: In vitro antibacterial activity (MIC); assay type: cell-based; conditions: Morganella morganii, C7323
[8] = tested on: Enterobacter strain C73-17; test: In vitro antibacterial activity (MIC); assay type: cell-based; conditions: C7317
Serratia strain No. 1 = test: In vitro antibacterial activity (MIC); assay type: cell-based
Serratia strain No. 2 = test: In vitro antibacterial activity (MIC); assay type: cell-based
[9] = tested on: Pseudomonas aeruginosa C73-2; test: In vitro antibacterial activity (MIC); assay type: cell-based; conditions: C732
[10] = tested on: Pseudomonas strain C73-63; test: In vitro antibacterial activity (MIC); assay type: cell-based; conditions: C7363
[11] = tested on: Vibrio parahaemolyticus K - 3; test: In vitro antibacterial activity (MIC); assay type: cell-based; conditions: K3
[12] = tested on: Vibrio parahaemolyticus K - 5; test: In vitro antibacterial activity (MIC); assay type: cell-based; conditions: K5
[13] = Serum concentration and accumulative urinary excretion in rabbit; conditions: in vivo, im; for concentration at 0.5 h: after 30 mins.
Experimental: as §1, §2
Each of the test compounds (20 mg/kg) was intramuscularly administered to one group of 3 rabbits, and the amounts of antibiotics were measured by a conventional method, using Sarcina lutea.

[14] = tested on: Pseudomonas aerugenosa E 2 strain; test: ED50 in Pseudomonas infection in mice; assay type: in vivo; conditions: ICR-JCL mouse, male, 20g; P. aerugenosa E 2 3.6 × 10^4 intraperitoneal; compound intramuscular after 2 hrs.; ED50 after 7 days; sodium salts
Source text: as §1, §2
Pseudomonas aerugenosa E 2 strain (3.6 × 10^4) was intraperitonealy injected to each group of 10 of ICR-JCL mouse (male, 20g). After 2 hrs., each of the test compounds was intramuscularly administered to the infected mice and the ED50 values were measured after 7 days.

[15] = Pseudomonas strain C73-83, in vitro, sodium salts, read-out: MIC
[16] = Salmonella strain C 73-30, in vitro, sodium salts, read-out: MIC
[17] = Salmonella strain C73-1, in vitro, sodium salts, read-out: MIC
[18] = Pseudomonas strain C73-63, in vitro, sodium salts, read-out: MIC
[19] = Staphylococcus aureus FDA 209NIH, P-J C-1, in vitro, sodium salts, read-out: MIC
[20] = Streptococcus faecalis ATCC 8043, in vitro, sodium salts, read-out: MIC
[21] = Bacillus substilis ATCC 6633, in vitro, sodium salts, read-out: MIC
[22] = Salmonella enteritidis No. 11, in vitro, sodium salts, read-out: MIC
[23] = Proteus morganii kono, in vitro, sodium salts, read-out: MIC
[24] = Vibrio parahaemolyticus K - 3, in vitro, sodium salts, read-out: MIC
[25] = Vibrio parahaemolyticus K - 5, in vitro, sodium salts, read-out: MIC
[26] = 20 mg/kg intramuscular, sodium salts, Sarcina lutea assay

Row | Compound | MIC ([1]; Staphylococcus aureus) [µg/mL] | MIC [2] [µg/mL] | MIC ([3]; Bacillus) [µg/mL] | MIC (Escherichia coli C 73-1; Escherichia coli) [µg/mL] | MIC (Escherichia coli C 73-4; Escherichia coli) [µg/mL] | MIC ([4]; ENTERITIDIS) [µg/mL] | MIC [5, 15] [µg/mL] | MIC [6, 16] [µg/mL] | MIC (Salmonella strain C73-1; [17]) [µg/mL] | MIC [7] [µg/mL] | MIC (Klebsilla pneumoniae) [µg/mL] | MIC (Proteus morganii kono) [µg/mL] | MIC (Proteus morganii C73-23) [µg/mL] | MIC ([8]; Enterobacter) [µg/mL] | MIC (Serratia strain No. 1; Serratia, NO.1) [µg/mL] | MIC (Serratia strain No. 2; Serratia, NO.2) [µg/mL] | MIC ([9]; Pseudomonas aeruginosa) [µg/mL] | MIC [10, 18] [µg/mL] | MIC ([11]; Vibrio parahaemolyticus) [µg/mL] | MIC ([12]; Vibrio parahaemolyticus) [µg/mL] | also measured
1 | CC1=C(C(=O)O)N2C(=O)[C@@H](NC(=O)[C@H](N)c3ccccc3)[C@H]2SC1 [CEX, sodium cephalexin, reference compound] | 0.78 | 50 | 0.39 | 25 | 6.25 | 3.13 | > 100 | 3.13 | 3.13 | 1.56 | 3.13 | > 100 | > 100 | 100 | > 100 | > 100 | > 100 | > 100 | 6.25 | 50 | –
2 | CCN1CCN(C(=O)N[C@@H](C(=O)N[C@@H]2C(=O)N3[C@@H]2SC(C)(C)[C@@H]3C(=O)O)c2ccccc2)C(=O)C1=O [C, sodium 6-[D(-)-α-(4-ethyl-2,3-dioxopiperazin-1-yl-carbonylamino)phenylacetamido]penicillanate, reference compound] | – | – | – | 3.13 | 6.25 | – | 50 | 6.25 | 6.25 | 0.2 | 3.13 | – | 3.13 | 6.25 | 3.13 | 3.13 | 6.25 | – | – | – | MIC [1, 19]: 0.78 µg/mL; MIC [2, 20]: 12.5 µg/mL; MIC [3, 21]: 0.39 µg/mL; MIC [4, 22]: < 0.05 µg/mL; MIC (Proteus morganii kono; [23]): 0.78 µg/mL; MIC ([10]; Pseudomonas): 3.13 µg/mL; MIC [11, 24]: 25 µg/mL; MIC [12, 25]: 12.5 µg/mL
3 | CCN1CCN(C(=O)N[C@@H](C(=O)NC2C(=O)N3C(C(=O)O)=C(CSc4nncs4)CS[C@H]23)c2ccc(OC(C)=O)cc2)C(=O)C1=O (single isomer, unassigned) [III, 7-[D(-)-α-(4-ethyl-2,3-dioxopiperazin-1-yl-carbonylamino)-p-acetoxyphenylacetamido]-3-(1,3,4-thiadiazol-2-yl-thiomethyl)-3-cephem-4-carboxylic acid] | – | – | – | – | – | – | 25 | 0.78 | 0.78 | 0.78 (≈ 1.13 µM) | – | – | – | – | – | – | – | 6.25 | – | – | MIC [1, 19]: 12.5 µg/mL; MIC [2, 20]: 1.56 µg/mL; MIC [3, 21]: 12.5 µg/mL; MIC (Escherichia coli C 73-1; Escherichia coli C 73-1, in vitro, sodium salts, read-out: MIC): 3.13 µg/mL; MIC (Escherichia coli C 73-4; Escherichia coli C 73-4, in vitro, sodium salts, read-out: MIC): 3.13 µg/mL; MIC [4, 22]: 1.56 µg/mL; MIC (Klebsilla pneumoniae; Klebsilla pneumoniae, in vitro, sodium salts, read-out: MIC): 0.78 µg/mL; MIC (Proteus morganii kono; [23]): 6.25 µg/mL; MIC (Proteus morganii C73-23; Proteus morganii C73-23, in vitro, sodium salts, read-out: MIC): 12.5 µg/mL; MIC ([8]; Enterobacter strain C73-17, in vitro, sodium salts, read-out: MIC): 25 µg/mL; MIC (Serratia strain No. 1; Serratia strain No. 1, in vitro, sodium salts, read-out: MIC): 6.25 µg/mL; MIC (Serratia strain No. 2; Serratia strain No. 2, in vitro, sodium salts, read-out: MIC): 1.56 µg/mL; MIC ([9]; Pseudomonas aeruginosa C73-2, in vitro, sodium salts, read-out: MIC): 1.56 µg/mL; MIC [11, 24]: 6.25 µg/mL; MIC [12, 25]: 6.25 µg/mL; dose excreted at 6 h ([13]; 20 mg/kg): 48%; concentration at 0.5 h [13, 26]: 62 µg/mL; ED50 in Pseudomonas infection in mice [14]: 2.6 mg/mouse
4 | CCN1CCN(C(=O)N[C@@H](C(=O)NC2C(=O)N3C(C(=O)[O-])=C(CSc4nncs4)CS[C@H]23)c2ccc(O)cc2)C(=O)C1=O.[Na+] (single isomer, unassigned) | 0.39 | 0.78 | 0.78 | 1.56 | 0.39 | < 0.05 | – | – | – | < 0.05 | 0.1 | 1.56 | 6.25 | 25 | 3.13 | 3.13 | 6.25 | – | 6.25 | 6.25 | MIC ([5]; Pseudomonas): 25 µg/mL; MIC ([6]; Salmonella): 0.39 µg/mL; MIC (Salmonella strain C73-1; Salmonella): 0.39 µg/mL; MIC ([10]; Pseudomonas): 1.56 µg/mL; concentration at 0.5 h [13, 26]: 52.8 µg/mL; dose excreted at 6 h ([13]; 20 mg/kg intramuscular, after 6 hrs., sodium salts, Sarcina lutea assay, read-out: ACCUMULATIVE URINARY EXCRETION): 33.4%; ED50 in Pseudomonas infection in mice [14]: 3.0 mg/mouse
